Assays:
[1] = test system: HBV viral load in AD38 cells; assay: Viral load production in AD38 cells, quantitative PCR of the core sequence in supernatant; type: cell-based; conditions: Hepatitis B virus, 144 h, 10 μM compound, 6 days at 37° C., supernatant qPCR, relative to DMSO control; read-out: AD38 Viral Load (%) (VL with cmpd/VL in DMSO control) at 10 μM
AD38 cells = assay: Viability of AD38 cells (Promega CellTiter-Glo); type: cell-based; conditions: 10 μM compound, 6 days, CellTiter-Glo luminescence normalized to DMSO control (100%)
Summary of the method: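 After 6 days of compound exposure at 37° C (compound added as 10× solution in 10% DMSO; 50,000 cells/well, collagen-coated), medium was replaced with tetracycline-free DMEM/F12, 2% FBS, 1% DMSO. CellTiter-Glo luminescence was then recorded and normalized to DMSO-treated wells as 100% viability.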

| Structure (SMILES) | activity at 10 µM [1] [%] | AD38 Viability Normalized Result (cmpd/DMSO %) at 10 μM (AD38 cells) [%] |
| --- | --- | --- |
| COC(=O)c1ccc(-c2ncc(CNC(=O)c3ccc4c(c3)NC(=O)c3ccccc3O4)s2)cc1 [1612-A, methyl 4-(5-((11-oxo-10, 11-dihydrodibenzo [b, f] [1, 4]oxazepine-8-carboxamido)methyl)thiazol-2-yl) benzoate] | 12.4 | 101 |
| CC(C)c1cnn(-c2ncc(CNC(=O)c3ccc4c(c3)NC(=O)c3ccccc3S4(=O)=O)s2)c1 [11117-A] | 0.3 | 110 |
| O=C(NCc1cnc(-c2ccc(OCC3CNC3)cc2)s1)c1ccc2c(c1)NC(=O)c1ccccc1S2(=O)=O.O=C(O)C(F)(F)F [compound 1995, N-((2-(4-(azetidin-3-ylmethoxy)phenyl)thiazol-5-yl)methyl)-11-oxo-10, 11-dihydrodibenzo [b, f] [1, 4] thiazepine-8-carboxamide 5,5-dioxide TFA salt] | 16.3 | 103 |
| Cc1ncc(CNC(=O)c2ccc3c(c2)NC(=O)c2ccccc2[S+]3[O-])s1 (stereo not drawn) [compound 1526] | 0.8 | 94 |
| CN(C)C1CN(Cc2ccc(-c3ncc(CNC(=O)c4ccc5c(c4)NC(=O)c4ccccc4S5(=O)=O)s3)cc2)C1 [compound 11158] | 6.4 | 100 |
| N#Cc1ccc(-c2ncc(CNC(=O)c3cc4c(cc3Cl)S(=O)(=O)c3ccccc3C(=O)N4)s2)cc1 [compound 1935] | 0.7 | 112 |
| CN(C)CCSc1ncc(CNC(=O)c2ccc3c(c2)NC(=O)c2ccccc2S3(=O)=O)s1 [compound 1590] | 6.2 | 95 |
| Cc1cc2c(cc1C(=O)NCc1cnc(C(F)(F)F)s1)NC(=O)c1ccccc1S2(=O)=O [compound 1910] | 19 | 94 |
| CCN1c2ccc(C(=O)NCc3cnc(-c4ccc(C#N)cc4)s3)cc2NC(=O)c2ccccc21 [compound 1975] | 1 | 63 |
| CC(C)N(C)CCCOc1ccc(-c2ncc(CNC(=O)c3ccc4c(c3)NC(=O)c3ccccc3S4(=O)=O)s2)cc1 [compound 11091] | 1.3 | 89 |
| CCN(CC)CC(O)COc1ccc(-c2ncc(CNC(=O)c3ccc4c(c3)NC(=O)c3ccccc3S4(=O)=O)s2)cc1 (stereo not drawn) [compound 11086] | 4.7 | 88 |
| COc1ccc(-c2ncc(CNC(=O)c3ccc4c(c3)NC(=O)c3ccccc3S4(=O)=O)s2)cn1 [compound 1666, N-((2-(6-methoxypyridin-3-yl)thiazol-5-yl)methyl)-11-oxo-10, 11-dihydrodibenzo [b, f] [1, 4] thiazepine-8-carboxamide 5,5-dioxide] | 0.9 | 98 |
| O=C(NCc1cnc(-c2ccc(O)cc2)s1)c1ccc2c(c1)NC(=O)c1cc(Cl)ccc1S2 [compound 1760] | 6.4 | 94 |
| O=C(NCc1cnc(-c2ccc(O)nc2)s1)c1ccc2c(c1)NC(=O)c1ccccc1S2(=O)=O [compound 1669, N-((2-(6-hydroxypyridin-3-yl)thiazol-5-yl)methyl)-11-oxo-10, 11-dihydrodibenzo [b, f] [1, 4] thiazepine-8-carboxamide 5,5-dioxide] | 13.1 | 104 |
| O=C(NCc1cnc(-c2ccc([N+](=O)[O-])cc2)s1)c1ccc2c(c1)NC(=O)c1ccccc1S2(=O)=O [1645-A] | 0.3 | 98 |
| O=C(NCc1cnc(-c2ccc(OC3CCNCC3)cc2)s1)c1ccc2c(c1)NC(=O)c1ccccc1S2(=O)=O [compound 11026, 11-oxo-N-((2-(4-(piperidin-4-yloxy)phenyl)thiazol-5-yl)methyl)-10, 11-dihydrodibenzo [b, f] [1, 4] thiazepine-8-carboxamide 5,5-dioxide] | 5.5 | 100 |
| O=C1CCc2cc(-c3ncc(CNC(=O)c4ccc5c(c4)NC(=O)c4ccccc4S5(=O)=O)s3)ccc2N1 [compound 1951] | 1.8 | 101 |
| O=C(NCc1cnc(-c2ccc(OCC3CCNCC3)cc2)s1)c1ccc2c(c1)NC(=O)c1ccccc1S2(=O)=O [compound 11137, 11-oxo-N-((2-(4-(piperidin-4-ylmethoxy)phenyl)thiazol-5-yl)methyl)-10, 11-dihydrodibenzo [b, f] [1, 4] thiazepine-8-carboxamide 5,5-dioxide] | 3.6 | 96 |

Source: US11814376B2, “Hepatitis b core protein modulators” (Assembly Biosciences, Inc., priority 2015, dated 2023)
